This passage reports TGI results from PubChem BioAssay (NCI).

Holding throughout (assay): NCI tumour cell line growth inhibition, 48 h
Test [1] has as its system HCT-116 colon.
Test [2] concerns EKVX NSCLC.
Test [3] has as its system SK-MEL-5 melanoma.
The subject of test [4] is K-562 leukemia.
Test [5] deals with NCI-H460 lung.
Test [6] has as its system BT-549 breast.
Test [7] has as its system SF-295 CNS.
The subject of test [8] is SR leukemia.
The subject of test [9] is DU-145 prostate.
The test system of test [10] is HL-60(TB) leukemia.
Test [11] relates to KM12 colon.
Test [12] deals with MDA-MB-435.
Test [13] concerns U251 CNS.
Test [14] deals with CAKI-1 renal.
Test [15] deals with CCRF-CEM leukemia.
The subject of test [16] is HCC-2998 colon.
Test [17] concerns M14 melanoma.
For test [18], the system named is TK-10 renal.
For test [19], the system named is LOX IMVI melanoma.
In test [20] the test system is SK-MEL-2 melanoma.

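Exposure lasted 48 hours, with cells grown in 96-well plates and compounds tested at five concentrations. TGI marks complete inhibition of growth.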

Consider `C[S+](C)CC(=O)c1ccc2c(c1)Sc1ccccc1O2`, for which the TGI is 7.32 µM in test [1]; 14.4 µM in test [2]; 2.92 µM in test [3]; greater than 100 µM in [4]; 16.2 µM in test [5]; 6.17 µM in test [6]. The TGI in test [7] is 16 µM; in [8], greater than 50.9 µM; in [9], 11 µM; in [10], greater than 100 µM; in [11] it was 2.87 µM; in test [12], 10.1 µM. In addition, the TGI in test [13] was 17.6 µM; in test [14], 15 µM; in test [15], greater than 100 µM; in test [16], 7.71 µM; in test [17], 3.48 µM; in [18], 16.3 µM. Moreover, the TGI was found to be 20.9 µM in test [19] and 10 µM in [20].

For the compound `COc1cccc(NC(=O)CC(=O)N2N=C(C)C(N=Nc3ccc(S(=O)(=O)CCOS(=O)(=O)O)cc3)C2=O)c1` (stereo not given), the TGI in [1] is 13 µM; in [2] it was 31.9 µM; in [3], 13.3 µM; in test [4], greater than 100 µM; in test [5], 17.9 µM; in [6], 14.5 µM. In addition, the TGI in [7] was 30.6 µM; in test [8] it was greater than 100 µM; in test [9], 29.6 µM; in [10], 6.85 µM; in test [11] it was 36 µM; in [12], 10.4 µM. Further, the TGI is 17.9 µM in test [13]; 10.5 µM in test [14]; greater than 100 µM in [15]; 29.1 µM in test [16]; 20.2 µM in test [17]; 18.9 µM in test [18]. The values for the TGI in [19] and in test [20] were 4.25 µM and 6.23 µM, respectively.
